The values below come from ChEMBL document CHEMBL4190406, “Discovery of Potent, Selective, and Peripherally Restricted Pan-Trk Kinase Inhibitors for the Treatment of Pain” (J Med Chem, 2018).

A short description of series [1]: in vitro. Particulars: human, hepatocytes.
Series [2] in a line: in vitro. Particulars: dog, MDCK.
A short description of series [3]: Clearance in iv dosed rat administered as 4 hrs infusion. Particulars: in vivo. The class given is ADME, organism-based.
Series [4] in a line: Drug metabolism in human hepatocytes assessed as CYP450-mediated metabolite formation at 1 uM up to 240 mins by LC-MS/MS analysis. The class given is ADME, cell-based. Particulars: 4 h.
A short description of series [5]: physchem. Particulars: buffer, pH 7.4.
Series [6] in a line: Oral bioavailability in rat. The format is ADME, organism-based. Particulars: in vivo.
Series [7] can be described thus: in vitro. Particulars: human, liver microsomes. (In general: Liver microsomes are vesicles of endoplasmic reticulum, rich in cytochrome P450 enzymes.)
A short description of series [8]: Ratio of unbound brain to plasma concentration in iv dosed rat administered as 4 hrs infusion by equilibrium dialysis method. To be noted: brain and plasma, read-out: K(p,uu,brain). The class given is ADME, organism-based. (In general: Equilibrium dialysis compares concentrations on both sides of a semipermeable membrane.)

The structures appear in SMILES notation.

Broadly, the hepatocyte CLint is the rate of metabolic loss divided by the concentration. A word on the Papp A→B: it is how fast a substance crosses the layer from the apical side. A high value points to fast passage. Broadly, the clearance is the volume of plasma or blood freed of the substance per unit of time. For orientation: logD means the decadic logarithm of the distribution of all forms, ionised or not, between an organic phase and buffer at a given pH. Higher therefore signals higher lipophilicity. As usually defined, the bioavailability is dose-corrected exposure relative to a reference, in per cent. Lower therefore signals poor availability. The term microsomal CLint denotes the rate of metabolic loss divided by the concentration. A higher microsomal CLint goes with rapid turnover. Consider `Cn1cnc(-c2ccc(OC3CCN(C(=O)Cc4ccc(OC(F)(F)F)cc4)CC3)c(C(N)=O)c2)c1`, for which, in series [1], the hepatocyte CLint at 4 h, 1 µM amounted to 8 µL/min/1e6 cells. Also, the Papp A→B in series [2] was determined as 10 ×10⁻⁶ cm/s. In series [3], this compound displayed a clearance of 38 mL/min/kg. Besides, the Drug metabolism entry in series [4] is listed as “Metabolite_Detected”. Besides, the log distribution coefficient (logD) in series [5] came to 2.9. Further, in series [6], the bioavailability was determined as 45%. In series [7], this compound returned a microsomal CLint at 1 h, 1 µM of under 8 µL/min/mg. Besides, in series [8], the Kp uu at 4 h amounted to 0.0065.
